According to patent EP2119434A1, “Use of heterosidic flavonoid derivatives for therapy of stem cell cancers” (INSTITUT NATIONAL DE LA SANTE ET DE LA RECHERCHE MEDICALE …, priority 2008, dated 2009):

Tested on: U937
Test: Adhesion and cytotoxic assay (CAM-DR protocol, fibronectin), cell viability
Format: cell-based
Conditions: in vitro, adherent U937 (not shown)
Description: Fresh AML cells were obtained from bone marrow of patients upon informed consent, using Ficoll-Hypaque density-gradient centrifugation. […] For in vitro experiments, blasts were resuspended in IMDM. All patients were diagnosed according to WHO classification at the Hematology Department of Toulouse University Hospital (France). Normal bone marrow CD34+ and CD34- hematopoietic cells were harvested from healthy volunteers upon informed consent and obtained after positive selection of CD34-expressing cells by the means of immunomagnetic separation column (Miltenyi Biotech, Bergisch Gladbach, Germany). Fresh blood samples were collected from healthy adult donors and PBMC (Peripheral Blood Mononuclear Cells) were prepared on a Ficoll-Paque density gradient by centrifugation (800 g, 30 min at room temperature).
Adhesion assays were performed in 96-well plates coated overnight at 4°C with 40 µg/mL of human fibronectin (Roche Molecular Biochemicals, Mannheim, Germany) in a final volume of 50 µL in PBS. Each well was blocked with 1% fatty acid-free BSA in PBS, 1 h at room temperature and washed with PBS before seeding the cells. Cells were diluted at 3x10^5/mL overnight and then were serum starved for 1 h at 1x10^6/mL, incubated or not with plant extract/fraction and purified alkaloid or flavonoid compounds. Control assays were treated with corresponding solvents (water, water/ethanol, DMSO) at a 1/100 dilution. Cells were then allowed to adhere on fibronectin (10^5 cells/well) for 1 h at 37°C or maintained in suspension. In some experiments, both cells in suspension and adherent were treated with 0.5 µM daunorubicin (DNR) (Laboratoire Roger Bellon, Neuilly-sur-Seine, France) for 1 h at 37°C. At the end of the incubation period, cells were washed and incubated in serum containing medium for 24 h at 37°C. Cell viability was then quantified by methyl thiazolyl tetrazolium (MTT) assay (Sigma) or by the Annexin V-FITC detection kit from BD PharMingen. Experiments were performed in triplicate and results were evaluated as the percentage of surviving cells compared to the control group.
Aqueous extracts were prepared from dried H. scoparia leaves and serial dilutions were assayed for cytotoxicity over leukemic cells either in suspension or in adhesion following CAM-DR protocol.

| Compound | specific proapoptotic effect on adherent U937 cells |
| --- | --- |
| NCCc1c[nH]c2ccccc12 [tryptamine] | none of these compounds displayed a specific proapoptotic effect |
| COc1cc(O)c2c(=O)c(O)c(-c3ccc(O)c(O)c3)oc2c1 [rhamnetin] | none of these compounds displayed a specific proapoptotic effect |
| N-methylisosalsoline | none of these compounds displayed a specific proapoptotic effect |
| NCC(O)c1ccc(O)cc1 (stereo not shown) [norsynephrine] | none of these compounds displayed a specific proapoptotic effect |
